Reference: US20250136617A1 (The Regents of the University of Colorado, A Body Corporate, priority 2022, published 2025)
Read-outs that look alike come from different tables or passages of the source.

What was measured:
Format in all cases: cell-based
CXCR4 [1] = molecular target: T1, CXCR4 (Homo sapiens, UniProt P61073); assay: primary 1536 w β-arrestin recruitment assay (FRET, β-lactamase reporter) in U2OS cells overexpressing CXCR4; design: host or cells: U2OS; details: for activity in primary β-arrestin assay: SAR discussion; for Emax: U2OS, read-out: CXCR4 b-arrestin Emax (%)
Protocol: In an effort to identify CXCR4 activators from the NIH Molecular Library Small Molecule Repository (MLSMR), a primary screening assay was developed to measure β-arrestin recruitment to the activated G-protein coupled receptor by Florescence Resonance Energy Transfer (FRET) in U2OS cells overexpressing the CXCR4 receptor engineered with a β-lactamase (bla) reporter system (Invitrogen cat #K1779). CXCR4-bla cells plated in 1536 w were stimulated in the presence of 10 uM compound concentration. […] Using this approach, 370,620 compounds from the NIH MLSMR were successfully screened and 303 hits were identified (hit rate=0.08%; Z′=0.83). […] These compounds were graded according to activity and structure resulting in 86 compounds that met criteria as potential CXCR4 agonists for further characterization.
Chemical stability, synthetic tractability, solubility and complete dose response and potency criteria led to the prioritization of the 5-aryl-2-cyclopropyl oxazole scaffold, represented by primary hit Compound 2 (Table 1). Early structure-activity relationship was established around the 5-aryl-2-cyclopropyl oxazole core with commercially available analogs with diverse substituents in the sulfonanilide ring of the scaffold. […] Keeping the 2-OMe substituent constant a small set of electron withdrawing and electron rich substituents at the 5-position of the anilide ring were screened (entries 16-19).

[2] = test system: CEM-CCRF human lymphoblast cells; assay: Transwell migration assay in CEM-CCRF lymphoblasts; details: Homo sapiens
Protocol: Thus, to confirm CXCR4 functional activity, UCUF-728 was evaluated in a 96 w transwell migration assay in CEM human lymphoblast cells.
CEM-CCRF (ATCC CCL-119) were suspended in RPMI 1640 (Corning; 10-040-CV) at 5.0×10^5 cells/mL and allowed to incubate in cell culture incubator at 37° C. with 5% CO2 for one hour. […] Plates were reassembled and placed in a cell culture incubator at 37° C. with 5% CO2 for three hours. After incubation, Multi-Screen plate was disassembled and 100 μl of solution was collected from compound receiver tray and transferred to 96 well luminescent plate (Thermo Scientific; 265302) and an equal volume of ATPLite Istep luminescence reagent (Perkin Elmer, Waltham, MA; 6016731) was added to each well. Luminescence was measured using the CLARIOstar Plus (BMG LABTECH Inc., Cary, NC).

CXCR4 [3] = molecular target: T1, CXCR4; assay: β-arrestin recruitment, 384-well, Tango CXCR4-bla U2OS cells, normalized to SDF-1α; design: host or cells: U2OS; details: normalized to SDF-1; for EC50: read-out: TANGO β-arrestin EC50; for Emax: U2OS, read-out: TANGO β-arrestin Emax (%)
Protocol: Tango™ CXCR4-bla U2OS Cells (Invitrogen; K1779) were used for (β-arrestin recruitment assays and maintained as a monolayer culture in McCoy's 5a (Corning; 10-050-CV) supplemented with 10% dialyzed Fetal Bovine Serum (Gibco; 26400-044), 0.1 mM MEM Non-essential amino acids solution, 25 mM HEPES solution (Corning; 25-060-CI), 1 mM Sodium Pyruvate (Gibco; 11360-070), 200 μg/mL Zeocin selection reagent (Gibco; R25001), 50 μg/mL Hygromycin B (Gibco, 10687010), and 100 μg/mL Geneticin (G418 Sulfate) (Gibco, 10131035). U2OS cells were subcultured twice weekly by 0.05% Trypsin-EDTA treatment (Corning; 25-051-CI) and passaged to continue exponential growth phase for cell signaling assays. All cell cultures were maintained in cell culture incubators at 37° C. with 5% CO2. CHO-K1 CXCR4 cells (DiscoverX, Fremont, CA, USA) were used for cAMP inhibition assays and maintained as a monolayer culture in DMEM/F12 (Corning; 10-091-CV) supplemented with 10% Fetal Bovine Serum (Corning; 35-011-CV) and 100IU penicillin, […] streptomycin sulfate (Corning; 30-002-CI) and […] G418 (Gibco; 101310350. Cells were subculture 2 times weekly by o.o5% Trypsin-EDTA treatment (Corning; 25-051-CI) and passaged to continue exponential growth phase for cell signaling assays. All cell cultures were maintained in cell culture incubators at 37° C. with 5% CO2.CEM-CCRF cells (ATCC CCL-119) were used in both the migration and calcium flux assays and were cultured in growth media consisting of RPMI 1640 (Corning; 10-040-CV) supplemented with 10% Fetal Bovine Serum (Corning; 35-011-CV), and 100 IU penicillin, […] streptomycin sulfate (Corning; 30-002-CI). Cells were maintained in suspension and sub-cultured twice weekly to maintain cell densities between 0.8×10^6 cells/mL and 2.5×10^6 cells/mL to maintain exponential growth phase. Cells were harvested for use in migration and calcium flux assays at 2.0×10^6 cells/mL to 2.5×10^6 cells/mL and resuspended in assay media to desired density for respective experiments.
Tango™ CXCR4-bla U2OS Cells were resuspended in assay media consisting of DMEM (Corning; Corning, NY) supplemented with 1% dialyzed Fetal bovine serum, 0.1 mM MEM Non-essential amino acids solution, 25 mM HEPES solution (Corning; Corning, NY), 1 mM Sodium Pyruvate and 100 IU penicillin, […] streptomycin sulfate (Corning; Corning, NY) at a density of 3.0×10^5 cells/ml. Assay media FreeStyle 293 expression Medium (Gibco; 12338018) was used for testing the thiadiazine scaffold CXCR4 agonists. Cells suspension was dispensed at 30 μl per well into assay plate and incubated overnight in a cell culture incubator at 37° C. with 5% CO2. […] Following overnight incubation, LiveBlazer FRET B/G Loading Kit (Invitrogen; K1095) working reagent was prepared according to supplier guidelines and 6 μl of solution was dispensed into each well; 8 μL of solution for testing the thiadiazine scaffold CXCR4 agonists. Assay plate was covered and incubated in a dark place for two hours and Fluorescence Intensity was measured using the BMG LABTECH CLARIOstar Plus (BMG LABTECH Inc., Cary, NC) according to the LiveBlazer FRET B/G Loading Kit excitation and emission measurement guidelines.
Results are expressed as mean±SD for 3 to 5 independent experiments. Statistically significant differences in gene expression between two groups were assessed by Student's T-test, ANOVA with an appropriate post hoc test was be used for multiple comparisons. P<0.05 was considered to be statistically significant. All concentration response curves were analyzed to determine EC50 and Emax using the following equation:
where Y is the normalized response (0-100%), X is the log of concentration of compound tested, and the Hill slope is equal to 1.0% and 100% activity are specific to each assay. […]

[4] = read-out: Migration CEM EC50 (μM)

T1 sequence (P61073 whole entry): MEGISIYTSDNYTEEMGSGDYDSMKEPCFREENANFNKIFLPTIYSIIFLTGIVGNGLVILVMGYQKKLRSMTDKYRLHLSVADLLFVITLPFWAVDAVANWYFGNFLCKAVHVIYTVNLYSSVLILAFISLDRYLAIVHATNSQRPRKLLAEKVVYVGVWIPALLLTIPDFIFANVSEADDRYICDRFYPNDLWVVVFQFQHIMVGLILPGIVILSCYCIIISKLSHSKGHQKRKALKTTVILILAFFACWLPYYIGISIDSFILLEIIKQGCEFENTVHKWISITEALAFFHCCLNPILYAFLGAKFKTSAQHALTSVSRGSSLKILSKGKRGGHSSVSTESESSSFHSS

With `Cc1ccc(C)c(NS(=O)(=O)c2ccc(-c3cnc(C4CC4)o3)cc2)c1` [compound 13] the “activity in primary β-arrestin assay” value (CXCR4 [1]) was “most active among the dimethyl analogs” and the Emax (CXCR4 [1]) was 42%.
`CCOc1ccccc1NS(=O)(=O)c1ccc(-c2cnc(C3CC3)o2)cc1` [compound 5] was tested, and the EC50 (CXCR4 [1]; 1536 w screening platform) was 1 µM and the Emax (CXCR4 [1]) was 46%.
`CCOc1ccc(NS(=O)(=O)c2ccc(-c3cnc(C4CC4)o3)cc2)cc1` [compound 9] was tested, and the Emax (CXCR4 [1]) was 38%.
In the case of `COc1ccc(NS(=O)(=O)c2ccc(-c3cnc(C4CC4)o3)cc2)cc1OC` [compound 20], the “activity in primary β-arrestin assay” value (CXCR4 [1]) is reported as “inactive or had marginal activity”.
With `Cc1cccc(C)c1NS(=O)(=O)c1ccc(-c2cnc(C3CC3)o2)cc1` [compound 14] the “activity in primary β-arrestin assay” value (CXCR4 [1]) was “most active among the dimethyl analogs” and the Emax (CXCR4 [1]) was 45%.
`COc1ccc(F)cc1NS(=O)(=O)c1ccc(-c2cnc(C3CC3)o2)cc1` [compound 17] showed an Emax (CXCR4 [1]) of 42%.
In the case of `Cc1cccc(NS(=O)(=O)c2ccc(-c3cnc(C4CC4)o3)cc2)c1C` [compound 10], the Emax (CXCR4 [1]) is reported as 40%.
`Cc1cc(C)cc(NS(=O)(=O)c2ccc(-c3cnc(C4CC4)o3)cc2)c1` [compound 15] gave an Emax (CXCR4 [1]) of 39%.
With `CCOc1ccccc1-c1nnc2n1N=C(c1ccc(NC(=O)c3ccc(C(=O)OC)cc3)cc1)CS2` [Entry 37] the EC50 ([2]; read-out: Migration CEM EC50) was over 10 µM and the EC50 (CXCR4 [3]) was over 10 µM.
In the case of `CCOc1ccccc1-c1nnc2n1N=C(c1ccc(NCc3ccccc3)cc1)CS2` [Entry 47], the EC50 ([2]; read-out: Migration CEM EC50) is reported as over 10 µM and the EC50 (CXCR4 [3]) is reported as over 10 µM.
Work on `CCCCOc1ccc(C2=Nn3c(nnc3-c3ccccc3OC)SC2)cc1` [Entry 5] yielded an EC50 [2, 4] of over 10 µM, an Emax (CXCR4 [3]) of under 35% and an EC50 (CXCR4 [3]) of under 5 µM.
With `CCc1ccccc1NS(=O)(=O)c1ccc(-c2cnc(C3CC3)o2)cc1` [compound 3] the Emax (CXCR4 [1]) was 38%.
`CCOC(=O)CCNc1ccc(C2=Nn3c(nnc3-c3ccccc3OCC)SC2)cc1` [Entry 41] was tested, and the Emax [2] was under 35%, the EC50 ([2]; read-out: Migration CEM EC50) was under 5 µM and the Emax (CXCR4 [3]) was 35 to 70%. For the same compound, the EC50 (CXCR4 [3]) was under 5 µM.
Work on `CCOc1ccccc1-c1nnc2n1N=C(c1ccc(NC(=O)c3ccccc3C(=O)O)cc1)CS2` [Entry 35] yielded an EC50 ([2]; read-out: Migration CEM EC50) of over 10 µM and an EC50 (CXCR4 [3]) of over 10 µM.
`CCOc1ccccc1-c1nnc2n1N=C(c1ccc(OC(F)(F)F)cc1)CS2` [Entry 10] showed an Emax [2] of over 70%, an EC50 [2, 4] of 5 to 50 µM and an Emax (CXCR4 [3]) of over 70%. The EC50 (CXCR4 [3]) was under 5 µM.
